Consider four molecules from paper PMC8537327, “EGFR-Targeted Pentacyclic Triterpene Analogues for Glioma Therapy” (International Journal of Molecular Sciences, 2021).

For orientation: IC50 means the point on the concentration scale where inhibition reaches its midpoint. A word on the melting point: it is the temperature, or range, at which the solid turns liquid.

For series [1], the system named is T98G human glioblastoma cells. The series can be described thus: MTT cytotoxicity assay, T98G cells. It counts as cell-based. Conditions: MTT, 72 h. Here is the method: (§1) U251, T98G (Japanese Collection of Research Bioresources Cell Bank), and U87 human glioblastoma cell lines were incubated in Dulbecco’s Modified Eagle Medium (DMEM)/Ham’s F12 (Wako Pure Chemical Industries, Osaka, Japan), Eagle’s Minimum Essential Medium (EMEM; Wako Pure Chemical Industries, Osaka, Japan), and DMEM (Gibco/Thermo Fisher Scientific, Waltham, MA, USA) respectively, and supplemented with 10% fetal bovine serum (FBS; Sigma Aldrich, MO, USA). Jurkat human leukemic T-cell line was cultured in Roswell Park Memorial Institute (RPMI) 1640 (Wako Pure Chemical Industries, Osaka, Japan), supplemented with 10% FBS. PBMCs (Precision Bioservices, Frederick, MD, USA) were incubated in RPMI 1640 and supplemented with 10% human serum AB (HS) (Gemini, Woodland, CA, USA). All media were supplemented with 89 μg/mL streptomycin (Meiji Seika Pharma, Tokyo, Japan) at 37 °C in a humid atmosphere and 5% CO2. For each experiment, growing cells were plated at 4 × 10^4 cells/mL and 6 × 10^5 cells/mL into 24-well and 96-well microtiter tissue culture plates (Iwaki brand Asahi Glass Co., Chiba, Japan) respectively and incubated for 72 h before the addition of the drugs (the optimal cell number for cytotoxicity assays was determined in preliminary experiments). The stock solutions of the compounds and cisplatin (Sigma-Aldrich, St. Louis, MO, USA) in concentrations between 0.1–10 mM were prepared in dimethyl sulfoxide (DMSO; Wako Pure Chemical Industries, Osaka, Japan) and in H2O respectively, then were added to fresh culture medium. The concentration of DMSO and H2O in the final culture medium was 1% which had no effect on the cell viability.
(§2) The MTT (Dojindo Molecular Technologies, Kumamoto, Japan) assay was carried out using the U251, T98G, U87, Jurkat, and PBMC cells to determine the cytotoxicity of compounds 1–13 and cisplatin as previously described in the literature with small modifications. Treated cells were incubated with different concentrations (1–100 µM) of the compounds for 72 h at 37 °C in the CO2 incubator. About 100 µL (1.1 mg/mL) of MTT solution was added to each well and after further incubation for 4 h, formazan crystals formed. At the end of this period, the medium was removed and the formazan crystals were solubilized by the addition of 100 μL DMSO to each well. The absorbance was read on an Infinite M1000 plate reader (Tecan, Mannedorf, Switzerland) at a wavelength of 550 nm with background subtraction at 630 nm. All experiments were performed in triplicate and IC50 values were defined as the drug concentrations that reduced absorbance to 50% of control values.

The test system of series [2] is U251 human glioblastoma cells. The series can be described thus: MTT cytotoxicity assay, U251 cells. It counts as cell-based. Conditions: MTT, 72 h. Here is the method:
as §1, §2

A further series concerns U251 cells. The series can be described thus: Annexin V/ethidium homodimer III staining, apoptotic/necrotic cell detection. It counts as cell-based, human. The conditions noted are these: 24 h; IC50 concentration (Figure 4 legend), 5 μM (method). Here is the method:
U251 cells (4 × 10^4 cells/well) were seeded in each well of a 24-well plate with compound 10 and cisplatin at 5 μM concentration for 24 h. Then, the apoptotic/necrotic/healthy cells detection kit protocol was applied according to the manufacturer’s instructions (PromoKine, Heidelberg, Germany) with few modifications. Briefly, the cells were washed twice with 1 × binding buffer and then treated with FITC-Annexin V (5 μL), ethidium homodimer III (5 μL), and Hoechst 33342 (5 μL) for 20 min at room temperature in a protected-light environment. After washing in 1 × binding buffer, cells were analyzed under an all-in-one fluorescence microscope Biorevo Fluorescence BZ-9000 (Keyence, Osaka, Japan). Healthy cells, apoptotic cells, late apoptotic or necrotic cells, and necrotic cells were counted as previously described.

Series [3] concerns human peripheral blood mononuclear cells (PBMCs). As to the kind of experiment: MTT cytotoxicity assay, PBMCs. It counts as cell-based. The conditions noted are these: 72 h. Here is the method:
as §1, §2
Background: Tetrazolium assays rely on reduction of a dye to a coloured formazan, in cell work by metabolically active cells.

Series [4] concerns Jurkat human leukemic T-cells. The series can be described thus: MTT cytotoxicity assay, Jurkat cells. It counts as cell-based. Conditions: for IC50: MTT, 72 h; for SI (selectivity index): SI = IC50 for PBMCs/IC50 for Jurkat cells. Here is the method:
as §1, §2

In series [5] the test system is U87 human glioblastoma cells. The series can be described thus: MTT cytotoxicity assay, U87 cells. It counts as cell-based. Conditions: MTT, 72 h. Here is the method:
as §1, §2

The target in a further series is T1, FYN A (Homo sapiens, UniProt P06241).
T1 construct: purchased Promega Corporation
T1 sequence (P06241 whole entry): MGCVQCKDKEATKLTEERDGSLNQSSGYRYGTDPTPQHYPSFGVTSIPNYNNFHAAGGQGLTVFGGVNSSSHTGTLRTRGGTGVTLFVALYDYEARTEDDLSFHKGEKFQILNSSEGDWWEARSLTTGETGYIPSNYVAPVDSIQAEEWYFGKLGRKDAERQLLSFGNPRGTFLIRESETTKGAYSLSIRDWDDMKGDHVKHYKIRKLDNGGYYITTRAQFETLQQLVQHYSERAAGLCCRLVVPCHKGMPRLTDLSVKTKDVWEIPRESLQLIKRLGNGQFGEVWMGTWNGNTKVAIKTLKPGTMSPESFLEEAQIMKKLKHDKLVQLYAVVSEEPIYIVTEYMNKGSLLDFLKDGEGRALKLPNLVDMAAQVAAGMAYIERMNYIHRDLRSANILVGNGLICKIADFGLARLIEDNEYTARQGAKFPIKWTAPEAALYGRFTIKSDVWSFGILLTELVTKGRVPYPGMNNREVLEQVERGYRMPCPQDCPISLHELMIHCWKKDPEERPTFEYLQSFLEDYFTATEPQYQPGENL
The series can be described thus: Kinase profiling assay (ADP-Glo), FYN A. It counts as biochemical. Conditions: 30 µM concentration. Here is the method: (§3) The kinase profiling assay protocol (TK1 and TK-2) was applied according to the manufacturer‘s instructions (Promega Corporation, Madison, WI, USA) with few modifications. In regard to this protocol, the EGFR, HER2, HER4, IGF1R, InsR, KDR, PDGFR-α, PDGFR-β, ABL1, BRK, BTK, CSK, FYN A, LCK, LYN B, and SRC kinase stocks in the kinase strips were diluted with 95 µL 2.5x kinase buffer and their substrate stock in the substrate strip was diluted with 15 µL of 100 µM ATP solutions. Then, the kinase reactions were performed using 2 µL of the kinase working stocks, 2 µL of the ATP/substrate working stocks, and 1 µL of compound solution (0.1–100 µM) or 5% DMSO solution in the 384-well plate. After 4 h of incubation at room temperature, the activity of kinases was detected using ADP-Glo Kinase Assay (Promega Corporation, Madison, WI, USA) according to the manufacturer‘s protocol. Briefly, 5 µL of ADP-Glo reagent was added into each well of 384-well plate and the mixture was incubated at room temperature for 40 min to stop the kinase reaction and deplete any ATP remaining. Then, 10 µL Kinase Detection Reagent was added and the mixture was incubated for a further 30 min to convert the kinase-produced ADP to ATP, and then to light. […]
Background: ADP-Glo turns the ADP formed in a reaction into a luminescent signal.

Another series deals with T2, ABL1 (Homo sapiens, UniProt P00519).
T2 construct: purchased Promega Corporation
T2 sequence (P00519 whole entry): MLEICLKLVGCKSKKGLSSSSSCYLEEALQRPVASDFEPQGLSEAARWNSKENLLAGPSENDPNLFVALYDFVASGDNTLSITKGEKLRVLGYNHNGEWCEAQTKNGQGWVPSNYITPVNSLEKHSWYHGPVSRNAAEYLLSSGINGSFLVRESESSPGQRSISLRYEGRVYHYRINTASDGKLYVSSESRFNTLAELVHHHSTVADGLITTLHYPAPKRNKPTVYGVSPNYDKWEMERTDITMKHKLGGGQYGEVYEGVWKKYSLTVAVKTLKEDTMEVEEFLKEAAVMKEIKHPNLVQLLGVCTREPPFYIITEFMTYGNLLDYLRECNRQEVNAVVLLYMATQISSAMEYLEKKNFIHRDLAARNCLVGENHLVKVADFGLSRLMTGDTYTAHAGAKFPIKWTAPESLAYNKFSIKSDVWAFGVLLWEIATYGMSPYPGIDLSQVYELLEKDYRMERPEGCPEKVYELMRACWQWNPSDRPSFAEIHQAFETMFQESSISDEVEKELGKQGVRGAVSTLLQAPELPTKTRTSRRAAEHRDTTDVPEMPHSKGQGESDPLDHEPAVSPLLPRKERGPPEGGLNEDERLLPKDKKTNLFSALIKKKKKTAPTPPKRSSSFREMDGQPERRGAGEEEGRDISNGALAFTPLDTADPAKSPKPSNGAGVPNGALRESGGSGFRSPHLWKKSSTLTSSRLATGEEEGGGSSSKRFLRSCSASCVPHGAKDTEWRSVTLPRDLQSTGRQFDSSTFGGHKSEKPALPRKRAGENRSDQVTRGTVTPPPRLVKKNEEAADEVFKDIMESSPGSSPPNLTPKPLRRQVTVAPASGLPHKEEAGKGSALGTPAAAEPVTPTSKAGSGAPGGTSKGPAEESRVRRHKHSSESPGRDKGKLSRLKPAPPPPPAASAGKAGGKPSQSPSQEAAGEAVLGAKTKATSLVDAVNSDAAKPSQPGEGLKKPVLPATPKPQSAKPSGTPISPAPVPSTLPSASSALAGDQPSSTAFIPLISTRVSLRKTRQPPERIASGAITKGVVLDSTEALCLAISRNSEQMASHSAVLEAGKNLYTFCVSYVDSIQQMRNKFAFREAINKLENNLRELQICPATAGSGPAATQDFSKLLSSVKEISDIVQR
As to the kind of experiment: Kinase profiling assay (ADP-Glo), ABL1. It counts as biochemical. The conditions noted are these: 30 µM concentration. Here is the method: as §3

The target in another series is T3, HER2 (Homo sapiens, UniProt P04626).
T3 construct: purchased Promega Corporation
T3 sequence (P04626 23-1255): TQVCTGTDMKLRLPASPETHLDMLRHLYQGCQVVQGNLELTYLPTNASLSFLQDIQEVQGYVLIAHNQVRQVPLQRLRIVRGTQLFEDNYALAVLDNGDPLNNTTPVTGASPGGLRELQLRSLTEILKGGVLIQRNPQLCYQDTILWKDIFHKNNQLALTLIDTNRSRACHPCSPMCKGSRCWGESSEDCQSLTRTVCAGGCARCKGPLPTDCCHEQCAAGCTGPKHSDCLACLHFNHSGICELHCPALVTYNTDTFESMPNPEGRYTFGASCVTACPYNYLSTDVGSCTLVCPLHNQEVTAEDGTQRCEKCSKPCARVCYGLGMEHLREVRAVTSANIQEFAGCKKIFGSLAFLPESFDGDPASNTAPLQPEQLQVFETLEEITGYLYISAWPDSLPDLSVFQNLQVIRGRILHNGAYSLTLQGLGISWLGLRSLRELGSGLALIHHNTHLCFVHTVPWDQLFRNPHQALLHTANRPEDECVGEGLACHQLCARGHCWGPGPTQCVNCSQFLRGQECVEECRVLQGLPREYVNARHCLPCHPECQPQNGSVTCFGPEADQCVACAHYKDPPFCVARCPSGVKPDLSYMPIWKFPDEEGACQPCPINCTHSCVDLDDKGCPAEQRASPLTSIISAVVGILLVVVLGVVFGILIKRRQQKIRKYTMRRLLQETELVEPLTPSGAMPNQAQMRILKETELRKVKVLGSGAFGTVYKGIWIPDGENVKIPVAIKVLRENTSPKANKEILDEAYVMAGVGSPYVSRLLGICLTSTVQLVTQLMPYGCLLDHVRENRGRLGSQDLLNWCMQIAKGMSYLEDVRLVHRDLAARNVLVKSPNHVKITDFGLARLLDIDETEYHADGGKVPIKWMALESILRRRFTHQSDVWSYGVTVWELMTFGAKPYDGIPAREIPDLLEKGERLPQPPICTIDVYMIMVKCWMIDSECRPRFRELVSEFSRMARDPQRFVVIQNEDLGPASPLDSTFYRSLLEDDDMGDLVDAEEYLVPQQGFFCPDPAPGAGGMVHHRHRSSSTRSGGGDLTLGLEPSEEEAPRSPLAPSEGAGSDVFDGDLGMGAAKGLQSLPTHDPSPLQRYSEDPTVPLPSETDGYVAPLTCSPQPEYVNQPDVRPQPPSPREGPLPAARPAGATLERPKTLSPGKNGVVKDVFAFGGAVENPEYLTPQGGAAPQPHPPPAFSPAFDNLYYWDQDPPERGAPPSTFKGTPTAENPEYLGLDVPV
As to the kind of experiment: Kinase profiling assay (ADP-Glo), HER2. It counts as biochemical. The conditions noted are these: 30 µM concentration. Here is the method: as §3

Another series relates to K562 CML cell line. More on the design: method as in PMID 31574910. The conditions noted are these: previously reported by the authors; read-out: IC50, cytotoxic activity against K562 CML cell line; cited from earlier work.

Regarding `N.N.[Cl][Pt][Cl]` [Cisplatin, cisplatin, reference compound], the half-maximal inhibitory concentration (IC50) was determined as 16.9 ± 3.95 µM in [1]; 7.7 ± 2.81 µM in series [2]; 34.7 ± 7.11 µM in [3]; 4.87 ± 2 µM in series [4]; 20.9 ± 5.16 µM in series [5]. The “apoptosis in U251 cells” value in the series on U251 cells came to 13.83%. In series [4], the “SI (selectivity index)” value is 7.12.
Take `CC(=O)Nc1cccc(NCC2(C)C(O)CCC3(C)C2CCC2(C)C3CC=C3C4CC(C)(C)CCC4(C(=O)O)CCC32C)c1` (stereo not drawn) [Compound 13, 9-[((3-Acetamidophenyl)amino)methyl]-10-hydroxy-2,2,6a,6b,9,12a-hexamethyl-1,2,3,4,4a,5,6,6a,6b,7,8,8a,9,10,11,12,12a,12b,13,14b-icosahydropicene-4a-carboxylic acid]: the melting point is 265 to 267 °C. In addition, in [1] (Homo sapiens, T98G), 20.2 ± 5.47 µM corresponded to half-maximal inhibition (IC50). Moreover, the IC50 in [2] (Homo sapiens, U-251) stood at 9.95 ± 2.04 µM. For the same molecule, half-maximal inhibition in series [3] (Homo sapiens, PBMC) (IC50) was put at 43.1 ± 8.32 µM. In [4] (Homo sapiens, Jurkat), this molecule yielded a half-maximal inhibitory concentration (IC50) of 12.1 ± 1.64 µM. Besides, the “SI (selectivity index)” value in [4] turned out to be 3.57. Also, 21.7 ± 6.09 µM corresponded to half-maximal inhibition in series [5] (Homo sapiens, U-87 MG) (IC50).
Take `C#Cc1cccc(Nc2ncnc3cc(OCCOC)c(OCCOC)cc23)c1` [erlotinib, reference compound]: the “FYN A inhibition” value on FYN A is listed as “moderate”. The ABL1 inhibition result on ABL1 is listed as “moderate”. The HER2 inhibition entry at HER2 is “moderate”.
As for `CC1(C)CC[C@]2(C(=O)OCc3ccc(C#N)cc3)CC[C@]3(C)C(=CC[C@@H]4[C@@]5(C)CC[C@H](O)[C@@](C)(C=O)[C@@H]5CC[C@]43C)[C@@H]2C1` [Compound 9], the IC50 in series [1] (Homo sapiens, T98G) was 56.6 ± 6.08 µM; in series [2] (Homo sapiens, U-251), 14.1 ± 3.41 µM; in the series on K562 CML cell line, 3.19 µM; in [5] (Homo sapiens, U-87 MG), more than 100 µM.
